What all share (assay type): biochemical
One experiment deals with T1, B-Raf V600E (Homo sapiens, UniProt P15056, V600E).
T1 construct: P4254. pFastBacBD-CDC37 BRAF D437-K722-X, V600E; His6 with pFastBac HT leader (TEV site) (N); made in house; host or cells: Sf9 (baculovirus; chaperone CDC37 co-expressed)
The experiment can be described thus: AlphaScreen kinase assay, B-Raf V600E. To be noted: read-out: IC50, activity toward kinase B-Raf V600E. Background: Bead proximity is the source of the signal in Alpha formats.

The next experiment deals with Akt3 (Homo sapiens, UniProt Q9Y243). The experiment can be described thus: AlphaScreen kinase assay, Akt3. Particulars: read-out: IC50, activity toward kinase Akt3. From the text: (§1) AlphaScreen assay was used to screen additional kinases. The assay is similarly dependent on the phosphorylation of a peptide substrate. In this assay, an antibody that recognizes phosphorylated substrate is bound to an acceptor bead. The peptide substrate is attached to biotin, which binds to a donor head that contains streptavidin. Thus phosphorylated substrate is bound by antibody and streptavidin, bringing the donor and acceptor heads into close proximity when kinase is not inhibited. The donor produces singlet oxygen which results in emission from the acceptor when they are in close proximity. Conversely, when kinase is inhibited, the donor and acceptor beads are not associated and the emission from the acceptor is reduced.
Akt3, sequence (Q9Y243 whole entry): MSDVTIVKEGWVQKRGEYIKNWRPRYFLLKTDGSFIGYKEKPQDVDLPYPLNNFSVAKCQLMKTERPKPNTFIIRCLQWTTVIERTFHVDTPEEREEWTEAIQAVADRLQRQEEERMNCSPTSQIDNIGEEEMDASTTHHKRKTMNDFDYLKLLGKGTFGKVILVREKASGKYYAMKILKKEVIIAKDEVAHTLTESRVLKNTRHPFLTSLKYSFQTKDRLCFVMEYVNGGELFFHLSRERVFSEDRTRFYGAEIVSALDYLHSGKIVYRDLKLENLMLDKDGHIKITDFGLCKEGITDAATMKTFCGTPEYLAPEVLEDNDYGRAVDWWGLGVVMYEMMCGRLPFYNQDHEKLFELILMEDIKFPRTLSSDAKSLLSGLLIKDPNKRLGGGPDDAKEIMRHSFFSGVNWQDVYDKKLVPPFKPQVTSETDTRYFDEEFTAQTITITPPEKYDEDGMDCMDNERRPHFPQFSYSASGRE
(§2) AlphaScreen assays were done using compounds dissolved in DMSO to a concentration of 20 mM. The compounds were diluted accordingly to the desired final concentrations in each sample well, using 1:3 serial dilution for a total of 8 concentration points.

The target in another experiment is T2, Jnk1 (Homo sapiens, UniProt P45983).
T2 construct: purchased Upstate Biotechnology
The experiment is described as follows: AlphaScreen kinase assay, Jnk1. To be noted: read-out: IC50, activity toward kinase Jnk1.

For another experiment, the target named is T3, Fms (Homo sapiens, UniProt P07333).
T3 construct: purchased Upstate Biotechnology
T3 sequence (P07333 20-972): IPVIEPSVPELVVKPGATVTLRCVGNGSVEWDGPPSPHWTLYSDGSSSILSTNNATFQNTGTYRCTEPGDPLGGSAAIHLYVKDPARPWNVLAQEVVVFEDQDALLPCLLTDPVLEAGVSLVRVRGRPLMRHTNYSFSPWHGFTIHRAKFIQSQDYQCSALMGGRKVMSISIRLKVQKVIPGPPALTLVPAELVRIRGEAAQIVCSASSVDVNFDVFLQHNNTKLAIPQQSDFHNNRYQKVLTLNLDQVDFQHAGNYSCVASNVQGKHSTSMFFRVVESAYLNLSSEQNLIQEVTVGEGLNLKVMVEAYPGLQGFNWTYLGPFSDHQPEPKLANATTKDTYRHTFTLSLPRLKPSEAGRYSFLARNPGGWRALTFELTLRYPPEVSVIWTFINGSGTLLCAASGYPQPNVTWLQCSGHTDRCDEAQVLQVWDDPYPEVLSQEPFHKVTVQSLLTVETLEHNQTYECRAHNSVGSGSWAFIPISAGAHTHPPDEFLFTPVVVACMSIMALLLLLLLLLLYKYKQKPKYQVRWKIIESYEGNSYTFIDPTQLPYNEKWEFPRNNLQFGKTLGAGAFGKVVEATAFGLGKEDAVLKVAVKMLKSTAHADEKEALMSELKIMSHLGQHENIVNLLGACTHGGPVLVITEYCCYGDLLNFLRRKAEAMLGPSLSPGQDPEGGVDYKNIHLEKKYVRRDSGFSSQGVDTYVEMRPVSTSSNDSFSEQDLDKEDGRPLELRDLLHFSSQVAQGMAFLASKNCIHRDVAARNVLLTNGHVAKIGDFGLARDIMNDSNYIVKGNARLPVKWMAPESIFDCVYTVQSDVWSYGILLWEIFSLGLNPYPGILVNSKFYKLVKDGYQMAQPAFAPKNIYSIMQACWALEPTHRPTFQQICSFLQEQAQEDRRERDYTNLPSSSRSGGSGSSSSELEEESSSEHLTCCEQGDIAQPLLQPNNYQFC
The experiment is described as follows: AlphaScreen kinase assay, Fms. To be noted: read-out: IC50, activity toward kinase Fms.

In another experiment the target is T4, c-Raf-1 (Homo sapiens, UniProt P04049).
T4 construct: purchased Upstate Biotechnology
The experiment is described as follows: AlphaScreen kinase assay, c-Raf-1. Particulars: read-out: IC50, activity toward kinase c-Raf-1.

Another experiment concerns the target T5, FGFR1 (Homo sapiens, UniProt P11362, C488A/C584S).
T5 construct: P1351.pET N6 BI-PTP FGFR A458-E765-X C488A, C584S; made in house; host or cells: E. coli (PTP1B co-expressed)
The experiment can be described thus: AlphaScreen kinase assay, FGFR1.

The target of another experiment is T6, Fak (Homo sapiens, UniProt Q05397).
T6 construct: P1358.pFastBacHtb FAK S411-Q686-X; His6 with pFastBacHTb leader (TEV site) (N); made in house; host or cells: Sf9 (baculovirus)
T6 sequence (Q05397 411-686): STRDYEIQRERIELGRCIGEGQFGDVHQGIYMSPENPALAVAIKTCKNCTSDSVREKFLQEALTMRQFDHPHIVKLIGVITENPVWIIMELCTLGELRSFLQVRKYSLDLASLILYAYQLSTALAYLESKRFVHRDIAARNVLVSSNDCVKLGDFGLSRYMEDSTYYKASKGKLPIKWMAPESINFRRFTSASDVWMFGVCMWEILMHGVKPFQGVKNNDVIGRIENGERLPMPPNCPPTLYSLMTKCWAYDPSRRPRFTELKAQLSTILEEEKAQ
The experiment can be described thus: AlphaScreen kinase assay, Fak. Particulars: read-out: IC50, activity toward kinase Fak.

The target in the next experiment is T7, B-Raf (Homo sapiens, UniProt P15056).
T7 construct: purchased Upstate Biotechnology
The experiment can be described thus: AlphaScreen kinase assay, B-Raf. To be noted: read-out: IC50, activity toward kinase B-Raf.

The target in a further experiment is T8, Pyk2 (Homo sapiens, UniProt Q14289).
T8 construct: purchased Upstate Biotechnology
T8 sequence (Q14289 whole entry): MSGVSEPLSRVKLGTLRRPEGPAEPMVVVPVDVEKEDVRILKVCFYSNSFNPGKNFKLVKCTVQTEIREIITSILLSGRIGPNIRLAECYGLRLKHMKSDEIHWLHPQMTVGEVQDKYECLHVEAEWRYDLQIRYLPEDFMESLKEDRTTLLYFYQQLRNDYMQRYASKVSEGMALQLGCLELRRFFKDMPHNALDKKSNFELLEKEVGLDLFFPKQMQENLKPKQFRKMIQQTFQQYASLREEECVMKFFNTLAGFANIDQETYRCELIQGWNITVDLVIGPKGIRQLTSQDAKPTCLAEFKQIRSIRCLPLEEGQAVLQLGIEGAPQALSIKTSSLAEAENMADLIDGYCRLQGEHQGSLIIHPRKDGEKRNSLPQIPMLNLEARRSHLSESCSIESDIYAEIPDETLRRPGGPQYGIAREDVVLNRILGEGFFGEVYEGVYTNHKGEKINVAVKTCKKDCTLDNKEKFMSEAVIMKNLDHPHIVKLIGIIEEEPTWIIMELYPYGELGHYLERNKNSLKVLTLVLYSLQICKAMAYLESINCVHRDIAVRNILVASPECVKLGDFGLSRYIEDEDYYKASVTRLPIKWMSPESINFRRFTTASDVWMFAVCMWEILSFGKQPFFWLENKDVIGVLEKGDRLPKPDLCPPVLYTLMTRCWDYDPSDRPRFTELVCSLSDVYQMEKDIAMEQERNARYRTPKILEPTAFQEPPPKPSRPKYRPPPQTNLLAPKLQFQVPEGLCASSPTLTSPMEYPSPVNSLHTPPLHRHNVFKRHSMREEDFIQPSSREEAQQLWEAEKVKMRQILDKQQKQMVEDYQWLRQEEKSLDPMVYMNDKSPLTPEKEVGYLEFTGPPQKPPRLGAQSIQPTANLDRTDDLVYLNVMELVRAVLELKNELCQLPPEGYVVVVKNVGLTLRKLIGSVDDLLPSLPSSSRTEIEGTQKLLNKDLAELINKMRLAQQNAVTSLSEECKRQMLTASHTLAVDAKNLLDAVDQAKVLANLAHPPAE
The experiment is described as follows: AlphaScreen kinase assay, Pyk2. Particulars: read-out: IC50, activity toward kinase Pyk2.

The target in a further experiment is T9, Src (Homo sapiens, UniProt P12931).
T9 construct: P1144. pET-N6 BI-PTP SRC V86-L536-X; made in house
The experiment can be described thus: AlphaScreen kinase assay, Src. To be noted: read-out: IC50, activity toward kinase Src.

In the next experiment the target is T10, Jnk3 (Homo sapiens, UniProt P53779).
T10 construct: purchased Upstate Biotechnology
The experiment is described as follows: AlphaScreen kinase assay, Jnk3. Particulars: read-out: IC50, activity toward kinase Jnk3.

Another experiment concerns the target T11, Kit (Homo sapiens, UniProt P10721).
T11 construct: P1332.N6 BI PTP KIT M552-K948-X COD; His6 (N); made in house; host or cells: E. coli (PTP1B co-expressed)
The experiment is described as follows: AlphaScreen kinase assay, Kit. Particulars: read-out: IC50, activity toward kinase Kit.

The next experiment concerns the target MAP4K4 (Homo sapiens, UniProt O95819). The experiment is described as follows: AlphaScreen kinase assay, MAP4K4. Particulars: read-out: IC50, activity toward kinase MAP4K4.
For a further experiment, the target named is T12, Stk6 (Homo sapiens, UniProt O14965).
T12 construct: purchased Invitrogen (Carlsbad, Calif.), screening service
T12 sequence (O14965 1-403): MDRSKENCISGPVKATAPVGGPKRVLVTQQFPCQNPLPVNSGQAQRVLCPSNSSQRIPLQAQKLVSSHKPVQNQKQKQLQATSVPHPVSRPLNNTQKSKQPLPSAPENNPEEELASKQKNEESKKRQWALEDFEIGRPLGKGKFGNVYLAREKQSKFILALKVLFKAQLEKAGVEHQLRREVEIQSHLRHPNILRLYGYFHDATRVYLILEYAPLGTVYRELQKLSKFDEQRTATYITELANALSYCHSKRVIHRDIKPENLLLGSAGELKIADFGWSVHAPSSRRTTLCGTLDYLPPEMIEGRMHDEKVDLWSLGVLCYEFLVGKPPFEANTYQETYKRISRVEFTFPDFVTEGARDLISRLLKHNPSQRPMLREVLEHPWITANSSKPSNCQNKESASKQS
The experiment is described as follows: Z'-Lyte FRET kinase assay (Invitrogen), Stk6. Particulars: read-out: IC50, activity toward kinase Stk6.

Another experiment concerns the target T13, Kdr (Homo sapiens, UniProt P35968).
T13 construct: purchased Invitrogen (assay run by Invitrogen)
The experiment is described as follows: Z'-Lyte FRET kinase assay (Invitrogen), Kdr. Particulars: read-out: IC50, activity toward kinase Kdr.

Another experiment has as its target T14, Flt1 (Homo sapiens, UniProt P17948).
T14 construct: P1826.pETN6 BI-PTP FLT1 M799-D1165-X WT; His6 (N); made in house; host or cells: E. coli (PTP1B co-expressed)
T14 sequence (P17948 with tags, fused parts or gaps): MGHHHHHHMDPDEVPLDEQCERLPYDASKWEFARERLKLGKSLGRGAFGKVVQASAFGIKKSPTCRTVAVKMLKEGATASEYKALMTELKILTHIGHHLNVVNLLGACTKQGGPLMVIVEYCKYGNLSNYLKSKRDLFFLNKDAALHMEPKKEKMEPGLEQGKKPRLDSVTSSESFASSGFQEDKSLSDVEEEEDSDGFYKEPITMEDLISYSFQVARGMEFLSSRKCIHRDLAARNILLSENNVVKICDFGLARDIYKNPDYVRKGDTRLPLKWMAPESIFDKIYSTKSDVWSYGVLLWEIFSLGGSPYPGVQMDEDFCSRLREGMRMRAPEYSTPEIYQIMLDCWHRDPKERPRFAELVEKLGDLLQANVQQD
The experiment can be described thus: AlphaScreen kinase assay, Flt1. Particulars: read-out: IC50, activity toward kinase Flt1.

Another experiment concerns the target T15, Yes (Homo sapiens, UniProt P07947).
T15 construct: purchased Invitrogen (Carlsbad, Calif.), screening service
The experiment is described as follows: Z'-Lyte FRET kinase assay (Invitrogen), Yes. Particulars: read-out: IC50, activity toward kinase Yes. The essentials: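 Each kinase phosphorylated a FRET peptide (2 μM) at 10 μM ATP in 50 mM HEPES pH 7.5, 50 mM MgCl2, 5 mM EGTA, 0.05% BRIJ-35 with 1% DMSO, 1 h at room temperature. After a 1 h protease development step, coumarin/fluorescein emission ratio was read across serial compound dilutions.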

Another experiment deals with T16, Zap70 (Homo sapiens, UniProt P43403).
T16 construct: P1868.pFastBac1 ZAP70 D327-G606 HIS, WT; His7 (HHHHHHH) (C); made in house
T16 sequence (P43403 with tags, fused parts or gaps): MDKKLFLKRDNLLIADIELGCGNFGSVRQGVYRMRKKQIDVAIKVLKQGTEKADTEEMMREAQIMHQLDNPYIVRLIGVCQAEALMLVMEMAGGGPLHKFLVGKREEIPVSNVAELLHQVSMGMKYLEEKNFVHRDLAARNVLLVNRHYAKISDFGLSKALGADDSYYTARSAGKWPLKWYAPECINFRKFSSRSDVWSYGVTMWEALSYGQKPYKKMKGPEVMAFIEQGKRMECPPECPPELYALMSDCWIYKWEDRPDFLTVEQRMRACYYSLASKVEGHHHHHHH
The experiment is described as follows: AlphaScreen kinase assay, Zap70. Particulars: read-out: IC50, activity toward kinase Zap70.
Text: as §1, §2

Where [1] appears, read: read-out: IC50, activity toward kinase FGFR.

Structures are written as SMILES. Where two headings read alike, the source gives them in different places.

T11 sequence (P10721 with tags, fused parts or gaps): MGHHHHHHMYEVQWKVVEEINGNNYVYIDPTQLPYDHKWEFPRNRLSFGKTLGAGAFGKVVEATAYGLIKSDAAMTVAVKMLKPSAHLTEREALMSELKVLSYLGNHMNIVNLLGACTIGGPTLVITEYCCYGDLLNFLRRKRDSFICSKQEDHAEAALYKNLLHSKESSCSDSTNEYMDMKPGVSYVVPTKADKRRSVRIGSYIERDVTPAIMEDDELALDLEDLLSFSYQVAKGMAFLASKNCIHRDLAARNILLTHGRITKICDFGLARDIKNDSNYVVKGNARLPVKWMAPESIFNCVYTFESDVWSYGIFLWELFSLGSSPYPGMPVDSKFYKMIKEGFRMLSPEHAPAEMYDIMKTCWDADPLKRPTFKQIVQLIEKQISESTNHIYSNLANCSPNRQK
T1 sequence (P15056 with tags, fused parts or gaps V600E): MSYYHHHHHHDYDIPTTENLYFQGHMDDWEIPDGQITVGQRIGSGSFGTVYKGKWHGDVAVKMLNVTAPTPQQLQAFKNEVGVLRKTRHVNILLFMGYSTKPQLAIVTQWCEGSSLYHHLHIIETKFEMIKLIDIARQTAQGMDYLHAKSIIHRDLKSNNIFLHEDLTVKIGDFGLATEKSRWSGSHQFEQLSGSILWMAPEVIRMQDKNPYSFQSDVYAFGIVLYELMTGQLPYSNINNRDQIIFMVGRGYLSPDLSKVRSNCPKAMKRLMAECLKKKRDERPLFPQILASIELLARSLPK
T5 sequence (P11362 458-765 C488A/C584S): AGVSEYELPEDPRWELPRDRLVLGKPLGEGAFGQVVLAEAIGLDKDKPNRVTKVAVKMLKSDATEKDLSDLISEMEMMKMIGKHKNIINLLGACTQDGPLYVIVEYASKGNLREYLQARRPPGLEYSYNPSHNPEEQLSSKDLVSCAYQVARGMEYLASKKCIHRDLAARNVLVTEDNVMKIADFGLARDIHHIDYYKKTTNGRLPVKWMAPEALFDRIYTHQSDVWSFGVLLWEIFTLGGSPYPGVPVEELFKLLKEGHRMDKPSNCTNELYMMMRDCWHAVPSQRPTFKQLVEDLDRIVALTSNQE
MAP4K4, sequence (O95819 whole entry): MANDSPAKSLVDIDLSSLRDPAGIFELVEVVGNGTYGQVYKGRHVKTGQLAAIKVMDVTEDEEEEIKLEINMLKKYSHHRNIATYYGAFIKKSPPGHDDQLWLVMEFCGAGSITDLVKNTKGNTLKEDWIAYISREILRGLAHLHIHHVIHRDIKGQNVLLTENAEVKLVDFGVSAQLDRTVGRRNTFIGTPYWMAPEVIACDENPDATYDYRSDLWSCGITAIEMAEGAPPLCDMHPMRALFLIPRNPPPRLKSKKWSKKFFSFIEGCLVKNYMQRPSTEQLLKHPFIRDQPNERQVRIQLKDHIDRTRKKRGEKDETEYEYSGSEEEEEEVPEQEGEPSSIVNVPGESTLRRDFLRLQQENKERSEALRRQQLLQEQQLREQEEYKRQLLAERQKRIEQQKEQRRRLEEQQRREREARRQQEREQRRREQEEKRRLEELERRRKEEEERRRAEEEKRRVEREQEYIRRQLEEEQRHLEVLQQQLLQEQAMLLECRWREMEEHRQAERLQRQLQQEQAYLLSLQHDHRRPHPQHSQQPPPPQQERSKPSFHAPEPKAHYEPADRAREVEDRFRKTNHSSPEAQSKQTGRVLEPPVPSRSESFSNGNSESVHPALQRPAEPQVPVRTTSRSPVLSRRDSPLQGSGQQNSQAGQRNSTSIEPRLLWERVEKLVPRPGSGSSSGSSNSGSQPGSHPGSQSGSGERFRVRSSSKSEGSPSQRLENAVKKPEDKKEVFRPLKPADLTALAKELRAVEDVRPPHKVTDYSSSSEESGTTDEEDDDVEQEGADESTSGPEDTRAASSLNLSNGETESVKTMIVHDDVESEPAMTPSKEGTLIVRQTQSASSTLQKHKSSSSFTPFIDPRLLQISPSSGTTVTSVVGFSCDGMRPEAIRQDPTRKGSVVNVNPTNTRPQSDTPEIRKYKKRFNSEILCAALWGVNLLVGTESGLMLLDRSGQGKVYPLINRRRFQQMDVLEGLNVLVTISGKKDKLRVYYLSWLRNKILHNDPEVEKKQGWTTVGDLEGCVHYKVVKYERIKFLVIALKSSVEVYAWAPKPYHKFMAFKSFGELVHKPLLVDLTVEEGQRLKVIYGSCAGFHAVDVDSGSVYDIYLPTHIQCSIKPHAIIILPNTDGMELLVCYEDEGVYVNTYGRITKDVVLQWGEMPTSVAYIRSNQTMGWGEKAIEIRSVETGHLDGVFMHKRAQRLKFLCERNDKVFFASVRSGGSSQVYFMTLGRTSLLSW
Text for Kdr: For example, direct radiometric, indirect FRET or AlphaScreen assays may be used to assess the level of phosphorylation of a substrate in the presence of test compounds in order to determine the inhibitory affect of the compound on the kinase. […] For these assays, compounds of the invention were screened by Invitrogen using Z′-Lyte™ kinase assay.
Briefly, the Invitrogen kinase assay involves use of a specific peptide substrate optimized for each kinase, containing a fluorophore at each end that make up the FRET pair. The peptide sensitivity to proteolytic cleavage depends on phosphorylation of the peptide. Non-phosphorylated peptide is cleaved by a protease while peptide phosphorylated by the kinase is not cleaved. Cleavage of the peptide disrupts the FRET between the donor (coumarin) and acceptor (fluorescein) fluorophores, resulting in an increase in the ratio of donor emission to acceptor emission. The emission ratio of coumarin to fluorescein is used to assess the reaction progress. […] Thus, the assay involves a kinase reaction in the presence of varying concentrations of a given compound, a development reaction with site specific protease, and detection of the fluorescent emission ratio of coumarin and fluorscein. […] Reaction conditions for each kinase are determined to provide optimal reaction times, incubation temperature, kinase and ATP concentrations. Test samples are made up in 1× kinase buffer (50 mM HEPES pH 7.5, 50 mM MgCl2, 5 mM EGTA, 0.05% BRIJ-35) and compound at desired concentration prepared in DMSO such that the final DMSO is 1%. […] All kinase except for MAP2K1 were at 10 μM ATP in the kinase reaction, while MAP2K1 was at 100 μM. Samples are mixed and the kinase reaction is incubated 1 hour at room temperature, after which 5 μl of development solution is added and mixed. After incubation for another 1 hour at room temperature, 5 μl of stop reagent is added to each sample and mixed. The fluorescence signals are measured to determine the emission ratio.

Broadly, the IC50 is the concentration that inhibits the measured activity by half. `CCOC(c1ccc(N(Cc2ccc(Cl)cc2)C(=O)OC(C)(C)C)nc1)c1c[nH]c2ncccc12` (centres unmarked) [Compound P-1139]: the concentration for half-maximal inhibition (IC50) on B-Raf V600E and at Akt3 was not above 10 µM each time.

`CC(C)S(=O)(=O)Nc1ccc(F)c(Cc2c[nH]c3ncc(-c4cccnc4)cc23)c1F` [Compound P-0851]: the 50% inhibitory concentration (IC50) on Jnk1, at Fms, on B-Raf V600E, on c-Raf-1, on FGFR1 (setting [1]) and on Fak was not above 10 µM each time. The half-inhibitory concentration (IC50) at B-Raf, at Pyk2, at Src, at Jnk3, at Kit and at MAP4K4 was not above 10 µM throughout.

Turning to `Cc1ccc(Nc2ccnc3[nH]ccc23)cc1[N+](=O)[O-]` [Compound P-0995], at Akt3, the concentration for half-maximal inhibition (IC50) was not above 10 µM.

Consider `c1cc(Nc2ccc3c(c2)OCO3)c2cc[nH]c2n1` [Compound P-1062], for which the IC50 at Akt3 is not above 10 µM.

Take `c1cc2cc(Nc3ccc4ncsc4c3)cnc2[nH]1` [Compound P-1040]: the IC50 at Akt3 is not above 10 µM.

Take `OCCOc1cccc(Cc2c[nH]c3ncc(-c4ccsc4)cc23)c1` [Compound P-0287]: the concentration for half-maximal inhibition (IC50) at Stk6, on Kdr, on Fms, on B-Raf V600E, at FGFR1 (setting [1]) and on Flt1 was not above 10 µM each time. Besides, the IC50 on Pyk2, at Kit and at MAP4K4 was not above 10 µM each time.

Consider `COc1ccc(Nc2ccnc3[nH]ccc23)cc1` [Compound P-1155], for which, at Akt3, the half-inhibitory concentration (IC50) was not above 10 µM.

In the case of `Oc1ccc(Nc2ccnc3[nH]ccc23)cc1` [Compound P-1172], the concentration for half-maximal inhibition (IC50) at Akt3 was not above 10 µM.

For the compound `COc1ccc(Nc2cnc3[nH]ccc3c2)cc1` [Compound P-1095], the IC50 on Akt3 was not above 10 µM.

Take `COc1ccc(Nc2ccnc3[nH]ccc23)cc1Cl` [Compound P-0936]: at Akt3, the concentration for half-maximal inhibition (IC50) is not above 10 µM.

With `CSc1ccc(Nc2cnc3[nH]ccc3c2)cc1` [Compound P-1158], at Akt3, the IC50 was not above 10 µM.

Turning to `CSc1cccc(Nc2cnc3[nH]ccc3c2)c1` [Compound P-1150], the IC50 at Akt3 was not above 10 µM.

For `CC(C)c1ccc(Nc2cnc3[nH]ccc3c2)cc1` [Compound P-1039], at Akt3, the IC50 was not above 10 µM.

On to `O=C(c1ccc(NCC2CC2)nc1)c1c[nH]c2ncccc12` [Compound P-0202], for which the IC50 on Stk6, at Kdr, at Yes and on MAP4K4 was not above 10 µM in each case.

For the compound `c1ccc(Nc2ccnc3[nH]ccc23)cc1` [Compound P-1224], on Akt3, the IC50 was not above 10 µM.

Turning to `Cc1cccc(Nc2ccnc3[nH]ccc23)c1` [Compound P-1060], the half-inhibitory concentration (IC50) at Akt3 was not above 10 µM.

Take `c1cc(Nc2ccc3[nH]ccc3c2)c2cc[nH]c2n1` [Compound P-0940]: the IC50 at Akt3 was not above 10 µM.

Regarding `c1ccc2c(Cc3c[nH]c4ncccc34)cccc2c1` [Compound P-0442], the IC50 on Zap70, at FGFR1 (setting [1]) and on MAP4K4 was not above 10 µM in each case.

With `CCCS(=O)(=O)Nc1ccc(Cl)c(C(=O)c2c[nH]c3ncc(-c4cccnc4)cc23)c1F` [Compound P-0753, Propane-1-sulfonic acid [4-chloro-2-fluoro-3-(5-pyridin-3-yl-1H-pyrrolo[2,3-b]pyridine-3-carbonyl)-phenyl]-amide], the IC50 at Jnk1, on Fms, on c-Raf-1, on FGFR1, at Pyk2 and on Src was not above 10 µM throughout. For the same compound, the IC50 on Jnk3, on Kit and on MAP4K4 was not above 10 µM in each case.

In the case of `CSc1ccc(Nc2ccnc3[nH]ccc23)cc1` [Compound P-0990], the IC50 at Akt3 was not above 10 µM.

For the compound `c1cnc2ccc(Nc3cnc4[nH]ccc4c3)cc2c1` [Compound P-1034], at Akt3, the IC50 is not above 10 µM.

Turning to `CCCc1ccc(Nc2cnc3[nH]ccc3c2)cc1` [Compound P-1043], the IC50 at B-Raf V600E and on Akt3 was not above 10 µM each time.

The record behind these values is patent US8415469B2, “Compounds and methods for kinase modulation, and indications therefor” (Plexxikon Inc., priority 2005, dated 2013).
